Data on 3 molecules can be found in KR20230168537A, “유파틸린을 포함하는 대장암 예방 또는 치료용 약학적 조성물” (고려대학교 산학협력단, priority 2022, dated 2023).

The structures appear in SMILES notation. Bounds are passed on as bounds.

Common to all, as to format: cell-based
The subject of series [1] is HT29. Nature of the series: MTT cell viability assay.
Another series has as its system BAK. The experiment in a line: Western blot, apoptosis-related protein. On the technique in general: Immunoblotting shows a protein as a band on a membrane.
The test system of series [2] is HCT116. Nature of the series: MTT cell viability assay. Background: Tetrazolium assays rely on reduction of a dye to a coloured formazan, in cell work by metabolically active cells.
The next series relates to cytochrome c. Nature of the series: Western blot, apoptosis-related protein.
For series [3], the system named is colorectal cancer cells (대장암세포). Nature of the series: Cell cycle analysis (PI, flow cytometry). As to conditions: 100 μM, 48 h. For orientation: A flow cytometer gives signals particle by particle.
For series [4], the system named is HT29. The experiment in a line: Annexin V/PI apoptosis assay. As to conditions: Homo sapiens, HT-29, 48 h, read-out: increase in apoptosis versus control.
Series [5] relates to HCT116. Nature of the series: Spheroid culture (hanging drop). Particulars: HCT116, dose-dependent.
For the next series, the system named is AKT. Nature of the series: Western blot, signalling protein phosphorylation. Particulars: HCT116 and HT29 cells.
The test system of series [6] is HCT116. Nature of the series: BrdU cell proliferation assay. Particulars: Homo sapiens, HCT-116; HCT116, 25 μM or more, 48 h; read-out: reduction of cell proliferation.
A further series relates to P70S6K. The experiment in a line: Western blot, signalling protein phosphorylation. As to conditions: HCT116 and HT29 cells.
Series [7] deals with HCT116. The experiment in a line: Annexin V/PI apoptosis assay. As to conditions: Homo sapiens, HCT-116, 48 h, read-out: increase in apoptosis versus control.
The test system of another series is BCL-xL. Nature of the series: Western blot, apoptosis-related protein. As to conditions: colorectal cancer cells, 24 h.
In series [8] the test system is HCT116. The experiment in a line: Cell migration assay. As to conditions: HCT116, 24 h.
A further series has as its system ATG5. Nature of the series: Western blot, autophagy-related protein. Particulars: HT29.
Series [9] relates to HT29. Nature of the series: Transwell invasion assay. Particulars: Homo sapiens, HT-29; HT29, 50 μM, 16 h; read-out: reduction in number of cells passing through Transwell.
Series [10] concerns HT29. Nature of the series: Cell migration assay. As to conditions: HT29, 24 h.
The subject of series [11] is HCT116. Nature of the series: TUNEL assay, DNA fragmentation. Particulars: HCT116, 48 h.
The test system of series [12] is HT29. The experiment in a line: Mitochondrial membrane potential (JC-1). As to conditions: HT29, 100 μM, 48 h.
The test system of another series is P90RSK. The experiment in a line: Western blot, signalling protein phosphorylation. Particulars: HCT116 and HT29 cells.
Series [13] has as its system HT29. Nature of the series: TUNEL assay, DNA fragmentation. As to conditions: HT29, 48 h.
A further series concerns P38. The experiment in a line: Western blot, signalling protein phosphorylation. As to conditions: HCT116 and HT29 cells.
In the next series the test system is IRE1α. Nature of the series: Western blot, ER stress-related protein.
Series [14] concerns HT29. The experiment in a line: Spheroid culture (hanging drop). Particulars: HT29, 50 μM.
Series [15] deals with HT29. The experiment in a line: ROS production (DCFH-DA).
Series [16] concerns HCT116. The experiment in a line: Mitochondrial membrane potential (JC-1). As to conditions: 48 h.
A further series has as its system S6. Nature of the series: Western blot, signalling protein phosphorylation. As to conditions: HCT116 and HT29 cells.
The test system of series [17] is HCT116. The experiment in a line: ROS production (DCFH-DA).
The subject of a further series is eIF2α. Nature of the series: Western blot, ER stress-related protein. As to conditions: HCT116.
The test system of series [18] is HCT116. Nature of the series: Transwell invasion assay. As to conditions: Homo sapiens, HCT-116; HCT116, 50 μM, 16 h; read-out: reduction in number of cells passing through Transwell.
In series [19] the test system is HT29. The experiment in a line: BrdU cell proliferation assay. As to conditions: Homo sapiens, HT-29; HT29, 50 μM or more, 48 h; read-out: reduction of cell proliferation.
The subject of a further series is ERK. Nature of the series: Western blot, signalling protein phosphorylation. Particulars: HCT116 and HT29 cells.
The subject of another series is JNK. Nature of the series: Western blot, signalling protein phosphorylation. As to conditions: HCT116 and HT29 cells.
Another series has as its system LC3BⅡ. The experiment in a line: Western blot, autophagy-related protein.
The test system of another series is GRP78. The experiment in a line: Western blot, ER stress-related protein. Particulars: HCT116.
For a further series, the system named is P62. The experiment in a line: Western blot, autophagy-related protein. Particulars: HT29.

Broadly, the cell viability is a per cent measure of how many cells are alive, often set against a control. A low value points to more harm to the cells. For the molecule `O=c1[nH]cc(F)c(=O)[nH]1` [5-FU, 5-fluorouracil], the cell viability in the series with HT29 [1] (HT29, anticancer drug 5 μM alone) was 69.0%; in the series with HT29 [1] (HT29, anticancer drug 10 μM alone), 64.1%; in the series with HT29 [1] (HT29, anticancer drug 20 μM alone), 56.5%; with HT29 [1] (HT29, anticancer drug 40 μM alone), 50.9%; in the series with HCT116 [2] (HCT116, anticancer drug 5 μM alone), 74.2%; with HCT116 [2] (HCT116, anticancer drug 10 μM alone), 71.6%. Besides, the cell viability with HCT116 [2] (HCT116, anticancer drug 20 μM alone) amounted to 66.2%; with HCT116 [2] (HCT116, anticancer drug 40 μM alone), 55.4%. In addition, the BAK expression result in the series on BAK (5-FU-resistant HCT116) is on record as “발현에는 영향을 미치지 못한”. Further, in the series with cytochrome c (5-FU-resistant HCT116), the cytochrome c expression entry is on record as “발현에는 영향을 미치지 못한”.

On to `CCc1c2c(nc3ccc(OC(=O)N4CCC(N5CCCCC5)CC4)cc13)-c1cc3c(c(=O)n1C2)COC(=O)[C@]3(O)CC` [Irinotecan], for which the cell viability was found to be 81.4% with HT29 [1] (human, ht29 cells, 5 µM); 60.9% in the series on HT29 [1] (human, ht29 cells, 10 µM); 50.1% in the series on HT29 [1] (human, ht29 cells, 20 µM); 30.1% with HT29 [1] (human, ht29 cells, 40 µM); 66.6% in the series on HCT116 [2] (human, hct116 cells, 5 µM); 52.0% with HCT116 [2] (human, hct116 cells, 10 µM). The cell viability in the series on HCT116 [2] (human, hct116 cells, 20 µM) was 43.9%; in the series with HCT116 [2] (human, hct116 cells, 40 µM), 28.9%.

Take `COc1ccc(-c2cc(=O)c3c(O)c(OC)c(O)cc3o2)cc1OC` [유파틸린, 5,7-Dihydroxy-3', 4', 6-trimethoxyflavone]: the “proportion of S phase” value in series [3] was “S기의 비율을 감소”. Also, in series [3], the “proportion of SubG1 phase” value is reported as “유의적으로 증가”. The “reduction of cell viability” value in the series with HT29 [1] (HT29, 100 μM or more) is recorded as at least 50%; with HCT116 [2] (HCT116, 25 μM or more), at least 50%. Moreover, the fold induction at 50 µM with HT29 [4] (HT29, 50 μM) was determined as 1.6; in the series on HCT116 [7] (HCT116, 50 μM), 4.4; in the series on HT29 [15] (Homo sapiens, HT-29, HT29, 50 μM, 1 h, read-out: increase in ROS production) it was 5.6; in the series with HCT116 [17] (Homo sapiens, HCT-116, HCT116, 50 μM, 1 h, read-out: increase in ROS production), 15.8. The fold induction at 100 µM turned out to be 1.7 with HT29 [4] (HT29, 100 μM) and 13.2 in the series on HCT116 [7] (HCT116, 100 μM). For the same molecule, the spheroid density entry was “용량의존적으로 스페로이드의 전체 면적 및 밀도를 감소” with HCT116 [5] and “유의적으로 감소” in the series with HT29 [14]. The spheroid total area result in the series on HCT116 [5] was “용량의존적으로 스페로이드의 전체 면적 및 밀도를 감소”. Further, the AKT phosphorylation entry with AKT is on record as “인산화를 억제”. In addition, the inhibition at 25 µM in the series on HCT116 [6] is at least 50%. For the same molecule, the P70S6K phosphorylation result in the series with P70S6K is reported as “인산화를 억제”. Moreover, in the series on BAK (colorectal cancer cells, 24 h), the BAK expression entry is recorded as “발현을 증가”. In addition, the BCL-xL expression entry in the series on BCL-xL is listed as “발현을 저해”. In addition, the cell migration entry in the series with HCT116 [8] and in the series on HT29 [10] was “세포 이주성을 현저하게 감소” in each case. Further, the ATG5 expression entry in the series with ATG5 was “발현을 증가”. Further, the inhibition at 50 µM with HT29 [9] was 42%; in the series on HCT116 [18], 97.2%; in the series with HT29 [19], at least 50%. The “frequency of DNA fragmentation” value with HCT116 [11] and in the series on HT29 [13] was “DNA 단편화의 빈도를 증가” in each case. In addition, the cytochrome c expression entry in the series on cytochrome c (colorectal cancer cells, 24 h) was “발현을 증가”. Besides, the “decrease in mitochondrial membrane potential” value with HT29 [12] is given as 1.5 fold; in the series with HCT116 [16] (HCT116, 50 μM), 2.0 fold; in the series with HCT116 [16] (HCT116, 100 μM), 2.6 fold. Besides, the P90RSK phosphorylation entry in the series on P90RSK is listed as “인산화를 유도”. Besides, the P38 phosphorylation result with P38 was “인산화 역시 증가”. Moreover, in the series with IRE1α (HCT116), the IRE1α expression result is recorded as “발현을 증가”. Also, the IRE1 expression entry in the series with IRE1α (HT29, only IRE1 increased among the ER stress proteins) is recorded as “IRE1의 발현만 증가”. In addition, the DCF fluorescence result in the series with HT29 [15] (HT29) and in the series on HCT116 [17] (HCT116) was “형광을 증가” throughout. Moreover, the S6 phosphorylation entry in the series on S6 was “인산화를 억제”. For the same molecule, in the series with eIF2α, the “phosphorylated eIF2α expression” value is reported as “발현을 증가”. In the series on ERK, the ERK phosphorylation entry is on record as “인산화를 유도”. The JNK phosphorylation entry in the series on JNK was “인산화 역시 증가”. The LC3BⅡ expression result in the series on LC3BⅡ (HCT116) and in the series on LC3BⅡ (HT29) was “발현을 증가” throughout. Further, the GRP78 expression result with GRP78 is recorded as “발현을 증가”. Further, the P62 expression result in the series with P62 is recorded as “발현을 증가”.
